Measurements taken from patent US20210155644A1, “CYCLOPENTENYL PURINE DERIVATIVE OR SALT THEREOF” (Fujifilm Corporation, priority 2018, published 2021).

The compounds below were run on adenovirus type 6 (ADV6) (assay: Evaluation of anti-adenovirus activity: CRL-11516 cells infected with ADV6, anti-hexon staining, count of stained cells). Conditions: CRL-11516 cells infected with ADV6, 48 hours culture, concentration reducing dark brown-stained cells by 50%; read-out: Anti-AdV activity EC50.
Type: cell-based
Experimental: A system in which CRL-11516 cells (available from ATCC) were infected with adenovirus type 6 (hereinafter, referred to as ADV6) was constructed, and a test for evaluating the anti-adenovirus activity of the compound according to the embodiment of the present invention and the compound of Comparative Example was carried out using the system. The test for evaluating the anti-adenovirus activity was carried out according to the method described below.
CRL-11516 cells were added to a 96-well plate at a cell density of 1×10^4 cells/well and cultured at 37° C. for 24 hours. After the culture was completed, the cell culture liquid was removed, and a serial dilution (100 μL) of the compound according to the embodiment of the present invention or the compound of Comparative Example was added. ADV6 (corresponding to 50TCID50) was added thereto, followed by culturing at 37° C. for 48 hours.
After the culture was completed, the infected cells were stained using Adeno-X Rapid Titer Kit (manufactured by Takara Bio Inc.). 100% methanol was added thereto and the cells were fixed at −20° C. for 10 minutes. The plate was washed three times with phosphate buffered saline (hereinafter, referred to as PBS) and then Mouse Anti-Hexon Antibody was added thereto, followed by incubation at 37° C. for 1 hour. After the incubation was completed, the plate was washed three times with PBS, and Rat Anti-Mouse Antibody was added thereto, followed by incubation at 37° C. for 1 hour. After the incubation was completed, a mixed staining solution of Stable Peroxidase Buffer:DAB Substrate=10:1 was added thereto, followed by incubation at room temperature for 10 minutes for staining of the cells.
The number of dark brown-stained cells was counted under a microscope, and the concentration of the test drug that reduces the dark brown-stained cells by 50% was defined as EC50. EC50 values were calculated for the triplicate test results, and a mean value and a standard deviation thereof were determined.
`COc1nc(N)nc2c1ncn2[C@H]1C=C[C@@H](COP(=O)(N[C@@H](C)C(=O)OC(C)C)Oc2ccc(Cl)cc2)C1` (single isomer, unassigned) [Example 4-8-1] gave an EC50 of 10 to 100 nM. `COc1nc(N)nc2c1ncn2[C@H]1C=C[C@@H](COP(=O)(N[C@@H](C)C(=O)OC(C)C)Oc2ccc(Cl)cc2)C1` (single isomer, unassigned) [Example 4-8-2] gave an EC50 of under 10 nM. For `COc1nc(N)nc2c1ncn2[C@H]1C=C[C@@H](COP(=O)(N[C@@H](CC(C)C)C(=O)OC(C)C)Oc2ccccc2)C1` (single isomer, unassigned) [Example 7-1-1], the EC50 was 10 to 100 nM. `COc1nc(N)nc2c1ncn2[C@H]1C=C[C@@H](COP(=O)(N[C@@H](CC(C)C)C(=O)OC(C)C)Oc2ccccc2)C1` (single isomer, unassigned) [Example 7-1-2] showed an EC50 of 100 to 1000 nM. With `COC(=O)[C@H](C)NP(=O)(OC[C@@H]1C=C[C@H](n2cnc3c(Cl)nc(N)nc32)C1)Oc1ccc(Cl)cc1` (stereo partly drawn) [Example 1-2-4, methyl ((((1S,4R)-4-(2-amino-6-chloro-9H-purin-9-yl)cyclopent-2-en-1-yl)methoxy)(4-chlorophenoxy)phosphoryl)-L-alaninate] the EC50 was under 10 nM. For `COc1nc(N)nc2c1ncn2[C@H]1C=C[C@@H](COP(=O)(OCCSSCCOCc2ccccc2)OCCSSCCOCc2ccccc2)C1` [Example 1-2-8, ((1S,4R)-4-(2-amino-6-methoxy-9H-purin-9-yl)cyclopent-2-en-1-yl)methylbis(2-((2-(benzyloxy)ethyl)disulfanyl)ethyl)phosphate], the EC50 was 10 to 100 nM. `CC(C)OC(=O)[C@H](C)NP(=O)(OC[C@@H]1C=C[C@H](n2cnc3c(Cl)nc(N)nc32)C1)Oc1ccccc1` (stereo partly drawn) [Example 2-2-1, isopropyl ((((1S,4R)-4-(2-amino-6-chloro-9H-purin-9-yl)cyclopent-2-en-1-yl)methoxy)(phenoxy)phosphoryl)-L-alaninate] showed an EC50 of 100 to 1000 nM. Compound `COc1nc(N)nc2c1ncn2[C@H]1C=C[C@@H](COP(=O)(N[C@@H](C)C(=O)OC(C)C)Oc2ccccc2)C1` (stereo partly drawn) [Example 2-2-12, isopropyl ((((1S,4R)-4-(2-amino-6-methoxy-9H-purin-9-yl)cyclopent-2-en-1-yl)methoxy)(phenoxy)phosphoryl)-L-alaninate] has an EC50 of 100 to 1000 nM.

Same assay, conditions: Human mastadenovirus C, 48 h, CRL-11516 cells infected with ADV6, 48 hours culture, concentration reducing dark brown-stained cells by 50%; read-out: Anti-AdV activity EC50
`COC(=O)[C@H](C)NP(=O)(OC[C@@H]1C=C[C@H](n2cnc3c(OC)nc(N)nc32)C1)Oc1ccc(Cl)cc1` (stereo partly drawn) [Example 1-2-2, methyl ((((1S,4R)-4-(2-amino-6-methoxy-9H-purin-9-yl)cyclopent-2-en-1-yl)methoxy)(4-chlorophenoxy)phosphoryl)-L-alaninate] was tested, and the EC50 was under 10 nM. `COC(=O)[C@H](C)NP(=O)(OC[C@@H]1C=C[C@H](n2cnc3c(OC)nc(N)nc32)C1)Oc1ccc(Br)cc1` (stereo partly drawn) [Example 1-2-3, methyl ((((1S,4R)-4-(2-amino-6-methoxy-9H-purin-9-yl)cyclopent-2-en-1-yl)methoxy)(4-bromophenoxy)phosphoryl)-L-alaninate] gave an EC50 of under 10 nM. Work on `COC(=O)[C@H](C)NP(=O)(OC[C@@H]1C=C[C@H](n2cnc3c(N)nc(N)nc32)C1)Oc1ccc(Br)cc1` (stereo partly drawn) [Example 1-2-6, Methyl ((4-bromophenoxy)(((1S,4R)-4-(2,6-diamino-9H-purin-9-yl)cyclopent-2-en-1-yl)methoxy)phosphoryl)-L-alaninate] yielded an EC50 of 100 to 1000 nM. Work on `CCOC(=O)[C@H](C)NP(=O)(OC[C@@H]1C=C[C@H](n2cnc3c(OC)nc(N)nc32)C1)Oc1ccccc1` (stereo partly drawn) [Example 1-2-34, ethyl ((((1S,4R)-4-(2-amino-6-methoxy-9H-purin-9-yl)cyclopent-2-en-1-yl)methoxy)(phenoxy)phosphoryl)-L-alaninate] yielded an EC50 of 10 to 100 nM. `COC(=O)[C@H](C)NP(=O)(OC[C@@H]1C=C[C@H](n2cnc3c(N(C)C)nc(N)nc32)C1)Oc1ccc(Br)cc1` (stereo partly drawn) [Example 1-2-45, Methyl ((((1S,4R)-4-(2-amino-6-(dimethylamino)-9H-purin-9-yl)cyclopent-2-en-1-yl)methoxy)(4-bromophenoxy)phosphoryl)-L-alaninate] showed an EC50 of under 10 nM. `CNc1nc(N)nc2c1ncn2[C@H]1C=C[C@@H](COP(=O)(N[C@@H](C)C(=O)OC)Oc2ccc(Br)cc2)C1` (stereo partly drawn) [Example 1-2-46, Methyl ((((1S,4R)-4-(2-amino-6-(methylamino)-9H-purin-9-yl)cyclopent-2-en-1-yl)methoxy)(4-bromophenoxy)phosphoryl)-L-alaninate] was tested, and the EC50 was under 10 nM. With `COC(=O)C(C)(C)NP(=O)(OC[C@@H]1C=C[C@H](n2cnc3c(OC)nc(N)nc32)C1)Oc1ccc(Br)cc1` (stereo partly drawn) [Example 1-2-49, Methyl 2-(((((1S,4R)-4-(2-amino-6-methoxy-9H-purin-9-yl)cyclopent-2-en-1-yl)methoxy)(4-bromophenoxy)phosphoryl)amino)-2-methylpropanoate] the EC50 was under 10 nM. `COc1nc(N)nc2c1ncn2[C@H]1C=C[C@@H](COP(=O)(N[C@@H](C)C(=O)OC2CC2)Oc2ccccc2)C1` (stereo partly drawn) [Example 1-2-58, cyclopropyl ((((1S,4R)-4-(2-amino-6-methoxy-9H-purin-9-yl)cyclopent-2-en-1-yl)methoxy)(phenoxy)phosphoryl)-L-alaninate] was tested, and the EC50 was 10 to 100 nM. `CC(C)OC(=O)[C@H](C)NP(=O)(OC[C@@H]1C=C[C@H](n2cnc3c(Cl)nc(N)nc32)C1)Oc1ccc(Cl)cc1` (stereo partly drawn) [Example 1-2-70, isopropyl ((((1S,4R)-4-(2-amino-6-chloro-9H-purin-9-yl)cyclopent-2-en-1-yl)methoxy)(4-chlorophenoxy)phosphoryl)-L-alaninate] showed an EC50 of 10 to 100 nM. For `COc1nc(N)nc2c1ncn2[C@H]1C=C[C@@H](COP(=O)(N[C@@H](C)C(=O)OC(C)C)Oc2ccc(Cl)cc2)C1` (stereo partly drawn) [Example 1-2-72, isopropyl ((((1S,4R)-4-(2-amino-6-methoxy-9H-purin-9-yl)cyclopent-2-en-1-yl)methoxy)(4-chlorophenoxy)phosphoryl)-L-alaninate], the EC50 was 10 to 100 nM. Compound `CC(C)OC(=O)[C@H](C)NP(=O)(OC[C@@H]1C=C[C@H](n2cnc3c(NC4CC4)nc(N)nc32)C1)Oc1ccccc1` (stereo partly drawn) [Example 2-2-2, Isopropyl ((((1S,4R)-4-(2-amino-6-(cyclopropyl-amino)-9H-purin-9-yl)cyclopent-2-en-1-yl)methoxy) (phenoxy)phosphoryl)-L-alaninate] has an EC50 of 100 to 1000 nM. `COC(=O)[C@H](C)NP(=O)(OC[C@@H]1C=C[C@H](n2cnc3c(NC4CC4)nc(N)nc32)C1)Oc1ccccc1` (stereo partly drawn) [Example 2-2-3, Methyl ((((1S,4R)-4-(2-amino-6-(cyclopropyl-amino)-9H-purin-9-yl)cyclopent-2-en-1-yl)methoxy) (phenoxy)phosphoryl)-L-alaninate] was tested, and the EC50 was 10 to 100 nM. Compound `COC(=O)[C@H](C)NP(=O)(OC[C@@H]1C=C[C@H](n2cnc3c(Cl)nc(N)nc32)C1)Oc1ccccc1` (stereo partly drawn) [Example 2-2-7, Methyl ((((1S,4R)-4-(2-amino-6-chloro-9H-purin-9-yl)cyclopent-2-en-1-yl)methoxy) (phenoxy)phosphoryl)-L-alaninate] has an EC50 of 10 to 100 nM.

Same assay, conditions: Human mastadenovirus C; CRL-11516 cells infected with ADV6, 48 hours culture, concentration reducing dark brown-stained cells by 50%; read-out: Anti-AdV activity EC50
Compound `COC(=O)[C@H](C)NP(=O)(OCCSC(=O)C(C)(C)C)OC[C@@H]1C=C[C@H](n2cnc3c(OC)nc(N)nc32)C1` (stereo partly drawn) [Example 1-2-12, methyl ((((1S,4R)-4-(2-amino-6-methoxy-9H-purin-9-yl)cyclopent-2-en-1-yl)methoxy)(2-(pivaloylthio)ethoxy)phosphoryl)-L-alaninate] has an EC50 of under 10 nM. `CC(C)OC(=O)[C@H](C)NP(=O)(OCCSC(=O)C(C)(C)C)OC[C@@H]1C=C[C@H](n2cnc3c(Cl)nc(N)nc32)C1` (stereo partly drawn) [Example 1-2-73, isopropyl ((((1S,4R)-4-(2-amino-6-chloro-9H-purin-9-yl)cyclopent-2-en-1-yl)methoxy)(2-(pivaloylthio)ethoxy)phosphoryl)-L-alaninate] was tested, and the EC50 was under 10 nM. For `COc1nc(N)nc2c1ncn2[C@H]1C=C[C@@H](COP(=O)(N[C@@H](C)C(=O)OC(C)C)OCCSC(=O)C(C)(C)C)C1` (stereo partly drawn) [Example 1-2-74, isopropyl ((((1S,4R)-4-(2-amino-6-methoxy-9H-purin-9-yl)cyclopent-2-en-1-yl)methoxy)(2-(pivaloylthio)ethoxy)phosphoryl)-L-alaninate], the EC50 was 10 to 100 nM. `Nc1nc2c(ncn2[C@H]2C=C[C@@H](CO)C2)c(=O)[nH]1` [Example 1] showed an EC50 of 1000 to 10000 nM.

Same assay, conditions: read-out: Anti-AdV activity EC50; CRL-11516 cells infected with ADV6, 48 hours culture, concentration reducing dark brown-stained cells by 50%
`COc1nc(N)nc2c1ncn2[C@H]1C=C[C@@H](COP(=O)(OCCSC(=O)C(C)(C)C)Oc2ccccc2)C1` (stereo partly drawn) [Example 2-1, S-(2-(((((1S,4R)-4-(2-amino-6-methoxy-9H-purin-9-yl)cyclopent-2-en-1-yl)methoxy)(phenoxy)phosphoryl)oxy)ethyl) 2,2-dimethylpropanethioate] showed an EC50 of under 10 nM.
